The text below walks through data of patent publication US9376376B2, “Substitute diphenylamine compounds use thereof as antitumor agents” (SINOCHEM CORPORATION, priority 2012, dated 2016).

Each structure is given as a SMILES string.

Assay [1] has as its system colon cancer COLO-205. Kind of assay: In vitro cell inhibition assay, CCK-8 method, COLO-205. The following applies: Homo sapiens, COLO 205, read-out: The half maximal inhibitory concentration (IC50). On the technique in general: Formazan colour is commonly taken as a measure of viable cells.
Assay [2] relates to leukemia HL-60 cells. Description: In vitro cell inhibition assay, CCK-8 method, HL-60. Format: cell-based, human. As to conditions: HL-60 cells, CCK-8 method. On the procedure: (§1) After the cell culture flasks gently shaking, culture fluid was discarded in clean bench. […] Cells were collected and transferred to centrifuge tube. For the non-adherent cells HL-60, CCRF-CEM and MOLT-4, cell flasks were picked up from incubator and then transferred to the centrifuge tubes directly. After cells were collected using centrifuge at 1000 rpm/min for 5 min, the fluid was discarded. Then cells were washed for one time by PBS, discard fluid. Then add some medium, count cells under inverted microscope using blood cell counting plate, according the counting number to making the density of adherent cell was 1×10^5 cells/mL, the non-adherent cell was 2×10^5 cells/mL (the volumes of HL-60, CCRF-CEM, MOLT-4 are smaller than non-adherent cells, these cells added to each well was much more higher). Add 50 μL aliquots to each well of 96-well plates (the density of adherent cells was 5000 cells/well, non-adherent cells was 10000 cells/well). Blank control, Negative control, blank control with compounds and positive control wells were grouped, and three replicate wells were used for each data point in the experiments. Then the cells were cultured in 5% incubator for overnight at 37° C., Then the different concentration compounds were added to each well. After incubation for 48 h, according to the manufacturer's instructions, CCK-8 reagent (10 μl) was added and incubation was continued for a further 2-4 h. The absorbance (A) of each well was read at 450 nm using a plate reader.

Assay [3] has as its system non-small cell lung cancer A549 cells. Description: In vitro cell inhibition assay, CCK-8 method, A549. As to conditions: 48 h incubation. Format: cell-based, human. On the procedure:
as §1

With `COc1cc2ncnc(Nc3ccc(F)c(Cl)c3)c2cc1OCCCN1CCOCC1` [Gefitinib], the IC50 in assay [1] was determined as 6.97 µM.
Regarding `N#Cc1c(Cl)c(Cl)c(Nc2ccc(C(F)(F)F)cc2Cl)c(C#N)c1Cl` [Compound 6-47], the “Proliferation inhibitory effect of the compounds on HL-60 cells (% of Control)” value is listed as 7.02 % of Control in assay [2] (concentration 0.01 μM); 34.70 % of Control in assay [2] (concentration 0.1 μM); 41.47 % of Control in assay [2] (concentration 1 μM); 83.33 % of Control in assay [2] (concentration 10 μM); 98.51 % of Control in assay [2] (concentration 100 μM). For the same compound, the “Proliferation inhibitory effect of the compounds on A549 cells (% of Control)” value is listed as 42.56 % of Control in assay [3] (CCK-8, 0.01 μM); 49.86 % of Control in assay [3] (CCK-8, 0.1 μM); 53.58 % of Control in assay [3] (CCK-8, 1 μM); 55.57 % of Control in assay [3] (CCK-8, 10 μM); 99.91 % of Control in assay [3] (CCK-8, 100 μM).
In the case of `N#Cc1c(Cl)c(Cl)c(Nc2c(Br)cc(OC(F)(F)F)cc2Br)c(C#N)c1Cl` [Compound 6-111], the “Proliferation inhibitory effect of the compounds on HL-60 cells (% of Control)” value in assay [2] (concentration 0.01 μM) was 13.70 % of Control; in assay [2] (concentration 0.1 μM) it was 41.52 % of Control; in assay [2] (concentration 1 μM), 79.31 % of Control; in assay [2] (concentration 10 μM), 95.16 % of Control; in assay [2] (concentration 100 μM), 99.28 % of Control. Further, the “Proliferation inhibitory effect of the compounds on A549 cells (% of Control)” value was 23.15 % of Control in assay [3] (CCK-8, 0.01 μM); 29.42 % of Control in assay [3] (CCK-8, 0.1 μM); 53.14 % of Control in assay [3] (CCK-8, 1 μM); 80.03 % of Control in assay [3] (CCK-8, 10 μM); 99.83 % of Control in assay [3] (CCK-8, 100 μM).
